Test results taken from article PMC10023787, “Trio-pharmacophore DNA-encoded chemical library for simultaneous selection of fragments and linkers” (Nature Communications, 2023).

What was measured:
Type in all cases: binding
[1] = target: T1, MMP-2 (Homo sapiens, UniProt P08253); assay: Dynamic dual-pharmacophore DEL selection against MMP-2, NGS decoding; conditions: for MMP2 3L Enrichment Fold: 3L library (Supplementary fig 13); for MMP2 3L Count: 3L library; for MMP2 3L Count / MMP2 5L Count: sequence count (Supplementary fig 13); for MMP2 5L Enrichment Fold: 5L library (Supplementary fig 13); for MMP2 5L Count: 5L library
T1 construct: purchased Sino Biological 10082-HNAH
T1 sequence (P08253 110-660): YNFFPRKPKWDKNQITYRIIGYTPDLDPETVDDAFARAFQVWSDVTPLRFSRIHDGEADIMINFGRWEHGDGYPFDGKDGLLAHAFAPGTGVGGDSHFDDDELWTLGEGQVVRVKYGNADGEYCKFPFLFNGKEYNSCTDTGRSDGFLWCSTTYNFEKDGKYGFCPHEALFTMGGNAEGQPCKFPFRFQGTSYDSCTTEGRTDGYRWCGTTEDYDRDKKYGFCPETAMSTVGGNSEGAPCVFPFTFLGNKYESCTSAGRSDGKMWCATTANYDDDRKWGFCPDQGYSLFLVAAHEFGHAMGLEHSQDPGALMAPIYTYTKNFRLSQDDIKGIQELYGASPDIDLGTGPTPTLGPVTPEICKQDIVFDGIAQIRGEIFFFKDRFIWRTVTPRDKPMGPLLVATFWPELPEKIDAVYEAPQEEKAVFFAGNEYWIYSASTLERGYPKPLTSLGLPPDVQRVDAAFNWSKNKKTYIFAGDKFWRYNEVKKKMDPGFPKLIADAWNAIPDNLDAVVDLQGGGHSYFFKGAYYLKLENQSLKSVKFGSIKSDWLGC
Excerpt: (§1) Matrix metalloproteinases (MMPs) are zinc-dependent endopeptidases capable of degrading and remodeling extracellular matrix components[46],[47]. They are attractive therapeutic targets as high expression levels were detected in various diseases, such as inflammatory diseases, and at different stages of cancers, including metastasis, invasion, and angiogenesis[47]–[53]. As shown in Supplementary Fig. 3c, we performed selections against the two gelatinases (human MMP-2 and human MMP-9) to identify binding fragments for later design and synthesis of small molecule inhibitors. After selection, the three sub-libraries were decoded, and the enrichment was calculated by dividing the post-selection fraction (count/total counts) by the pre-selection fraction (Fig. 4a and Supplementary Fig. 13).
(§2) 4 µg of MMP-2/MMP-9 was dissolved in 100 µl of selection buffer containing 25 mM Tris-base, 10 mM CaCl2, 150 mM NaCl, 0.05% Tween 20, pH 7.5. 10 µl of 4-Aminophenylmercuric acetate (APMA) (100 mM) solution was added to the protein solution and incubated at 37 °C for 1 h. After activation, the solution was added on top of 40 µl pre-washed Ni-NTA resin and incubated for 30 min on a rotary shaker. The supernatant was discarded, and the resin was washed three times with the selection buffer.
(§3) For each independent selection, three sub-libraries were mixed in the selection buffer with a final concentration of 40 nM of each sub-library in 100 µl. The mixture was heat denatured at 90 °C for 1 min and slowly cooled down to allow the formation of the trio-pharmacophore library. The dynamic dual-pharmacophore DEL was provided by DyNAbind GmbH (Merck, DYNA001).
(§4) The assembled library was incubated with the protein-bound solid support for 2 h at RT on a rotary shaker. In parallel, selection on bare solid support served as the negative control to exclude promiscuous binders on the resin. After panning, the supernatant was discarded, and the resin was washed three times with 1 ml selection buffer. Finally, 100 µl of 50 mM Tris buffer, pH 7.4 was added to resuspend the resin and the resin was incubated at 95 °C for 5 min to denature the protein, release, and collect the bound library members.
(§5) The eluted library members were subjected to sample preparation for NGS. NGS preparation was achieved by two-step PCR. First, the individual selection was indexed using primers containing unique sequences corresponding to each selection. The amplified product was purified from 2% agarose gel. Second, the purified DNA from all selections were pooled in equal amount and subjected to the 2nd PCR step to attach sequences compatible with the NGS flow cell and the sequencing primers. NGS was performed by Novogene UK with Novaseq 6000. Raw data files (fastq files) obtained were decoded using a custom python script and excel. The sequence reads corresponding to each sample was retrieved by searching for the correct index unique to each selection. Then, the code region was extracted from each sequence and assigned to the corresponding identity. The count of each code in each selection sample was obtained by looping through the total reads and counting the occurrence of each code. The enrichment fold of each compound was calculated by first, dividing the count by the total count to get the abundance, second, the abundance after the selection was divided by the abundance of pre-selection to reflect the distribution change of the compound. Next, the enrichment fold was plotted against the count for each member of the library to give the scatter plots as in Fig. 4.

[2] = target: T2, MMP-9 (Homo sapiens, UniProt P14780); assay: Dynamic dual-pharmacophore DEL selection against MMP-9, NGS decoding; conditions: for MMP9 3L Enrichment Fold: 3L library (Supplementary fig 13); for MMP9 3L Count: 3L library; for MMP9 3L Count / MMP9 5L Count: sequence count (Supplementary fig 13); for MMP9 5L Enrichment Fold: 5L library (Supplementary fig 13); for MMP9 5L Count: 5L library
T2 construct: purchased Sino Biological 10327-HNAH
Excerpt: as §1, §2, §3, §4, §5

[3] = target: T2, MMP-9; assay: De novo T-DEL selection against MMP-9, NGS decoding; conditions: for Enrichment Fold / Count: MMP9 selection; for Count: NGS sequence count per Compound ID (Figure 4a)
Excerpt: as §1, §2, §3, §4, §5

[4] = MMP2 3L (3' sub-library members)
[5] = MMP2 3L (3' sub-library members), NGS sequence count after selection
[6] = enrichment fold of sub-library SL-C member, MMP-9 selection, Figure 4a source data
[7] = sequence count of sub-library SL-C member, MMP-9 selection, Figure 4a source data
[8] = NGS sequence count of sub-library SL-A building block, de novo T-DEL selection against MMP-9
[9] = NGS sequence count of sub-library SL-C building block, de novo T-DEL selection against MMP-9
[10] = sub-library SL-A building block, de novo T-DEL selection against MMP-9
[11] = sub-library SL-C building block, de novo T-DEL selection against MMP-9

T2 sequence (P14780 107-707 limits assumed): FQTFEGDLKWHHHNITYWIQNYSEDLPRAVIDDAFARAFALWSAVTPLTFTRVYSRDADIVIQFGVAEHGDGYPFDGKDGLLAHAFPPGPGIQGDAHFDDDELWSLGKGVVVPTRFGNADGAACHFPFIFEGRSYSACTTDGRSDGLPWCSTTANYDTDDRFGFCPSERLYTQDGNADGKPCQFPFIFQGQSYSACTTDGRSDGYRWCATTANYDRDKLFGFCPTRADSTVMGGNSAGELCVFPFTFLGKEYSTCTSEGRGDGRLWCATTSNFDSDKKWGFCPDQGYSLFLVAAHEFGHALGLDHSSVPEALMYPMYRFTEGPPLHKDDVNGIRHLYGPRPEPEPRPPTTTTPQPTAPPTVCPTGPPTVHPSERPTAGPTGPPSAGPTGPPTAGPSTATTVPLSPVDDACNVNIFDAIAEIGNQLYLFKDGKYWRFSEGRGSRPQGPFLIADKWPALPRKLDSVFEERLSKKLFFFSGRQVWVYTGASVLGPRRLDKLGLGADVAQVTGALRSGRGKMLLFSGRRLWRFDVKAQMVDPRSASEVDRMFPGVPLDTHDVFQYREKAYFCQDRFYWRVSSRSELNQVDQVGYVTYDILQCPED

Row | Enrichment Fold ([1]; MMP2 selection, 3L sub-library) | Enrichment Fold ([1]; MMP2 selection, 5L sub-library) | Enrichment Fold ([2]; MMP9 selection, 3L sub-library) | Enrichment Fold ([2]; MMP9 selection, 5L sub-library) | MMP2 3L Enrichment Fold ([1]; MMP2 selection) | MMP2 3L Count ([1]; MMP2 selection) | MMP2 5L Enrichment Fold ([1]; MMP2 selection) | MMP2 5L Count ([1]; MMP2 selection) | MMP9 3L Enrichment Fold ([2]; MMP9 selection) | MMP9 3L Count ([2]; MMP9 selection) | MMP9 5L Enrichment Fold ([2]; MMP9 selection) | MMP9 5L Count ([2]; MMP9 selection) | MMP9 SL-A Count [3, 8] | MMP9 SL-C Count [3, 9] | MMP9 SL-A Enrichment Fold [3, 10] | MMP9 SL-C Enrichment Fold [3, 11] | SMILES | Enrichment Fold [1, 4] | Count [1, 5] | MMP9 SL-C Enrichment Fold [3, 6] | MMP9 SL-C Count [3, 7] | other results
1 | 1.088 | 1.688 | 0.7692 | 1.565 |  |  |  |  |  |  |  |  |  |  |  |  | O=C(O)Cn1cnc2c(oc3ccccc32)c1=O [Compound 182] |  |  |  |  | Count ([1]; MMP2 selection, 3L sub-library, sequence count per compound ID): 1179; Count ([1]; MMP2 selection, 5L sub-library, sequence count per compound ID): 5803; Count ([2]; MMP9 selection, 3L sub-library, sequence count per compound ID): 816; Count ([2]; MMP9 selection, 5L sub-library, sequence count per compound ID): 4821; MMP9 SL-A Count ([3]; NGS sequence count per SL-A member, de novo T-DEL selection against MMP-9 (Figure 4a source data)): 5190; MMP9 SL-C Count ([3]; NGS sequence count per SL-C member, de novo T-DEL selection against MMP-9 (Figure 4a source data)): 816; MMP9 SL-A Enrichment Fold ([3]; enrichment fold per SL-A member, de novo T-DEL selection against MMP-9 (Figure 4a source data)): 1.432; MMP9 SL-C Enrichment Fold ([3]; enrichment fold per SL-C member, de novo T-DEL selection against MMP-9 (Figure 4a source data)): 0.7692
2 |  |  |  |  |  |  |  |  |  |  |  |  |  |  |  |  | O=C(O)c1cncc(O)c1 [Compound 828] | 6.248 | 14566 | 10.2969 | 32127 | Enrichment Fold ([2]; MMP9 3L (3' sub-library members)): 10.2969; Count ([2]; MMP9 3L (3' sub-library members), NGS sequence count after selection): 32127
3 |  |  |  |  | 0.8647 | 991 | 3.023 | 6628 | 1.167 | 1032 | 4.572 | 8985 | 8460 | 1032 | 3.659 | 1.167 | Cc1cc(=O)[nH]c(-n2nc(C)c(CCC(=O)O)c2C)n1 [Compound 693] |  |  |  |  | 
4 | 1.69 | 1.932 | 0.3958 | 1.238 |  |  |  |  |  |  |  |  |  |  |  |  | O=C(O)CNC(=O)NC12CC3CC(CC(C3)C1)C2 [Compound 66] |  |  |  |  | Count ([1]; MMP2 selection, 3L sub-library, NGS sequence count): 477; Count ([1]; MMP2 selection, 5L sub-library, NGS sequence count): 4327; Count ([2]; MMP9 selection, 3L sub-library, NGS sequence count): 87; Count ([2]; MMP9 selection, 5L sub-library, NGS sequence count): 2487; Enrichment Fold ([3]; sub-library SL-A (Figure 4a)): 2.103; Count ([3]; sub-library SL-A): 4968; Enrichment Fold ([3]; sub-library SL-C (Figure 4a)): 0.3958; Count ([3]; sub-library SL-C): 87
5 |  |  |  |  | 3.194 | 2558 | 0.7494 | 713 | 3.649 | 3684 | 0.7364 | 628 | 949 | 3684 | 0.9459 | 3.649 | NCc1c[nH]nn1 [Compound 787] |  |  |  |  | 
6 |  |  |  |  |  |  | 2.035 | 2158 | 4.359 | 10836 | 1.703 | 1619 | 1891 |  | 1.691 |  | Cn1c(O)nc2cc(C(=O)O)cnc21 [Compound 826] | 11.3583 | 12779 | 4.359 | 10836 | 
